These results are taken from BindingDB's records for patent US9815850 (Denali Therapeutics Inc., 2017).

For the test, the target named is T1, Receptor-interacting serine/threonine-protein kinase 1 (Homo sapiens, UniProt Q13546).
T1 sequence (Q13546 whole entry): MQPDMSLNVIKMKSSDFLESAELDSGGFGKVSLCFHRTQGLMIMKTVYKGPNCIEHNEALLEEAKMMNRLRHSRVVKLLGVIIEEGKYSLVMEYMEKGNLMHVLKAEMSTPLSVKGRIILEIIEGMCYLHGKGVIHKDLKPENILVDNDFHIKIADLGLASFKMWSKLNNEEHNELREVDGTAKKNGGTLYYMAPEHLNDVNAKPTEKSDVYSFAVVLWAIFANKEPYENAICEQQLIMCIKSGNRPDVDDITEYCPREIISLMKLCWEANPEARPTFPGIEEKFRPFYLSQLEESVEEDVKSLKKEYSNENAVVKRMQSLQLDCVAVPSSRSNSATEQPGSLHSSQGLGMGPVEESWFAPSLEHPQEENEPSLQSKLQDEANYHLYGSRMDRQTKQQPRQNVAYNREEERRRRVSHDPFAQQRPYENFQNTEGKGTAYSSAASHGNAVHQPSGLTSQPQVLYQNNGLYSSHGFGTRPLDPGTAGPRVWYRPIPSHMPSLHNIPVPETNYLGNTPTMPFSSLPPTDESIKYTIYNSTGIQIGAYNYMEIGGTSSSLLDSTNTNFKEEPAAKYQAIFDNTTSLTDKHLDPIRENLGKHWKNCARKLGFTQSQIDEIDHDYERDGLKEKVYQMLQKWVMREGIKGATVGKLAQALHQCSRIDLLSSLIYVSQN
As to the kind of experiment: Fluorescent Polarization Binding (FP Binding) assay. An excerpt: For negative control the enzyme addition was replaced by assay buffer only.

With `O=C(N[C@H]1COc2ccccc2-n2cnnc21)c1cc(Cc2ccccc2)[nH]n1` [US9815850, Compound 70A], the IC50 entry is “in the range around 0.5 µM”.
